Drawing on ChEMBL document CHEMBL5257025, “Artemisinin-Derived Dimers: Potent Antimalarial and Anticancer Agents” (J Med Chem, 2016), this text covers CC50 and IC50 for 25 molecules.

As usually defined, the IC50 is the point on the concentration scale where inhibition reaches its midpoint.

Data set [1] can be described thus: Cytotoxicity against African green monkey Vero cells. Format: toxicity, cell-based. The following applies: chlorocebus sabaeus, read-out: TC50 (the source's name).
The test system of data set [2] is Plasmodium falciparum. Nature of the data set: Antimalarial activity against Plasmodium falciparum NF54 assessed as reduction in cell growth. Format: functional, organism-based.
Data set [3] deals with Plasmodium falciparum. Nature of the data set: Antiplasmodial activity against Plasmodium falciparum NF54 assessed as reduction in malarial growth. In kind it is functional, organism-based.
The test system of data set [4] is KB. Nature of the data set: Antiproliferative activity against human KB cells assessed as reduction in cell viability incubated for 48 hrs by MTT assay. Format: functional, cell-based. (Tetrazolium dyes change colour on reduction, which living cells bring about.)
The subject of data set [5] is Plasmodium falciparum. Nature of the data set: Antimalarial activity against Plasmodium falciparum K1 assessed as inhibition of malarial growth. In kind it is functional, organism-based.
Data set [6] relates to MDA-MB-231. Nature of the data set: Antiproliferative activity against human MDA-MB-231 cells assessed as reduction in cell viability measured after 48 hrs by MTT assay. The following applies: MDA-MB-231, 48 h. Format: functional, cell-based.
The subject of data set [7] is HT-29. Put plainly: cells. The following applies: Homo sapiens, HT-29, 72 h.

In the case of `CCN(CC)CCCC(C)Nc1ccnc2cc(Cl)ccc12` (stereo not drawn) [CHLOROQUINE], in data set [1], the CC50 is over 14900 nM.

As for `C[C@@H]1CC[C@H]2[C@@H](C)C(CC(COS(=O)(=O)c3cccc4c(N(C)C)cccc34)CC3O[C@H]4O[C@@]5(C)CC[C@H]6[C@H](C)CC[C@@H]([C@H]3C)[C@@]46OO5)O[C@H]3O[C@@]4(C)CC[C@@H]1[C@]32OO4` (stereo partly drawn), in data set [2], the IC50 was found to be 3.9 nM.

Regarding `C[C@@H]1CC[C@H]2[C@@H](C)C(/C=C\c3ccc(/C=C\C4O[C@H]5O[C@@]6(C)CC[C@H]7[C@H](C)CC[C@@H]([C@H]4C)[C@@]57OO6)cc3)O[C@H]3O[C@@]4(C)CC[C@@H]1[C@]32OO4` (stereo partly drawn), the IC50 in data set [3] was 18 nM.

As to `CCC[C@@]1(C[C@@H]2C(=O)O[C@H]3O[C@@]4(C)CC[C@H]5[C@H](C)CC[C@@H]2[C@@]35OO4)O[C@H]2O[C@@]3(C)CC[C@H]4[C@H](C)CC[C@@H]([C@H]1C)[C@@]24OO3`, the CC50 in data set [1] was over 130000 nM.

`COc1cc(OC)c(C2O[C@H]3O[C@@]4(C)CC[C@H]5[C@H](C)CC[C@@H]([C@H]2C)[C@@]35OO4)cc1C1O[C@H]2O[C@@]3(C)CC[C@H]4[C@H](C)CC[C@@H]([C@H]1C)[C@@]24OO3` (stereo partly drawn): the IC50 in data set [3] was 1.3 nM.

Regarding `C[C@@H]1CC[C@H]2[C@@H](C)C(CC(O)(CCS(=O)(=O)c3ccc(C(=O)O)cc3)CC3O[C@H]4O[C@@]5(C)CC[C@H]6[C@H](C)CC[C@@H]([C@H]3C)[C@@]46OO5)O[C@H]3O[C@@]4(C)CC[C@@H]1[C@]32OO4` (stereo partly drawn), in data set [2], the IC50 came to 2.4 nM.

For the molecule `C[C@@H]1CC[C@H]2[C@@H](C)C(CC#Cc3ccc(C#CCC4O[C@H]5O[C@@]6(C)CC[C@H]7[C@H](C)CC[C@@H]([C@H]4C)[C@@]57OO6)cc3)O[C@H]3O[C@@]4(C)CC[C@@H]1[C@]32OO4` (stereo partly drawn), the IC50 in data set [3] was found to be 30 nM.

As for `C[C@@H]1CC[C@H]2[C@@H](C)C(/C=C\c3cccc(/C=C/C4O[C@H]5O[C@@]6(C)CC[C@H]7[C@H](C)CC[C@@H]([C@H]4C)[C@@]57OO6)c3)O[C@H]3O[C@@]4(C)CC[C@@H]1[C@]32OO4` (stereo partly drawn), the IC50 in data set [3] worked out at 35 nM.

Consider `C[C@@H]1CC[C@H]2[C@@H](C)C(CC3(CC4O[C@H]5O[C@@]6(C)CC[C@H]7[C@H](C)CC[C@@H]([C@H]4C)[C@@]57OO6)CO3)O[C@H]3O[C@@]4(C)CC[C@@H]1[C@]32OO4` (stereo partly drawn), for which the 50% inhibitory concentration (IC50) in data set [2] was found to be 2.8 nM.

With `C[C@@H]1CC[C@H]2[C@@H](C)C(CC(O)(COC(=O)CCC(=O)O)CC3O[C@H]4O[C@@]5(C)CC[C@H]6[C@H](C)CC[C@@H]([C@H]3C)[C@@]46OO5)O[C@H]3O[C@@]4(C)CC[C@@H]1[C@]32OO4` (stereo partly drawn), the 50% inhibitory concentration (IC50) in data set [2] stood at 3 nM.

In the case of `C=C(CC1O[C@H]2O[C@@]3(C)CC[C@H]4[C@H](C)CC[C@@H]([C@H]1C)[C@@]24OO3)CC1O[C@H]2O[C@@]3(C)CC[C@H]4[C@H](C)CC[C@@H]([C@H]1C)[C@@]24OO3` (stereo partly drawn), the IC50 in data set [3] and in data set [2] was 24 nM in each case.

Turning to `C[C@@H]1CC[C@H]2[C@@H](C)C(CC(O)(CO)CC3O[C@H]4O[C@@]5(C)CC[C@H]6[C@H](C)CC[C@@H]([C@H]3C)[C@@]46OO5)O[C@H]3O[C@@]4(C)CC[C@@H]1[C@]32OO4` (stereo partly drawn), the IC50 in data set [2] amounted to 0.59 nM.

Take `C[C@@H]1CC[C@H]2[C@@H](C)C(CC(=O)c3cccc(C(=O)CC4O[C@H]5O[C@@]6(C)CC[C@H]7[C@H](C)CC[C@@H]([C@H]4C)[C@@]57OO6)c3)O[C@H]3O[C@@]4(C)CC[C@@H]1[C@]32OO4` (stereo in doubt): the IC50 in data set [3] is 1.9 nM.

Take `C[C@H]1[C@H](CCC(=O)c2ccc(C(=O)C[C@@H]3O[C@H]4O[C@@]5(C)CC[C@H]6[C@H](C)CC[C@@H]([C@H]3C)[C@@]46OO5)cc2)O[C@H]2O[C@@]3(C)CC[C@H]4[C@H](C)CC[C@@H]1[C@@]24OO3`: the IC50 in data set [3] worked out at 1.9 nM.

For the molecule `C[C@@H]1CC[C@H]2[C@@H](C)C(OC/C=C\COC3O[C@H]4O[C@@]5(C)CC[C@H]6[C@H](C)CC[C@@H]([C@H]3C)[C@@]46OO5)O[C@H]3O[C@@]4(C)CC[C@@H]1[C@]32OO4` (stereo partly drawn), in data set [4], the IC50 came out at 320 nM.

On to `C[C@@H]1CC[C@H]2[C@@H](C)C(CCOCc3ccc(COCCC4O[C@H]5O[C@@]6(C)CC[C@H]7[C@H](C)CC[C@@H]([C@H]4C)[C@@]57OO6)cc3)O[C@H]3O[C@@]4(C)CC[C@@H]1[C@]32OO4` (stereo partly drawn), for which the IC50 in data set [5] was 2.4 nM.

`CCCC[C@@]1(C[C@@H]2C(=O)O[C@H]3O[C@@]4(C)CC[C@H]5[C@H](C)CC[C@@H]2[C@@]35OO4)O[C@H]2O[C@@]3(C)CC[C@H]4[C@H](C)CC[C@@H]([C@H]1C)[C@@]24OO3`: the CC50 in data set [1] was over 130000 nM.

With `C[C@@H]1CC[C@H]2[C@@H](C)C(CC(O)(CC3O[C@@H]4O[C@]5(C)CC[C@@H]6[C@@H](C)CC[C@H]([C@@H]3C)[C@]46OO5)c3ccc(C(=O)O)cc3)O[C@H]3O[C@@]4(C)CC[C@@H]1[C@]32OO4` (stereo partly drawn), the IC50 in data set [2] came to 2.1 nM.

Regarding `C[C@@H]1CC[C@H]2[C@@H](C)C(/C=C/c3cccc(/C=C/C4O[C@@H]5O[C@]6(C)CC[C@@H]7[C@@H](C)CC[C@H]([C@@H]4C)[C@]57OO6)c3)O[C@H]3O[C@@]4(C)CC[C@@H]1[C@]32OO4` (stereo partly drawn), the IC50 in data set [3] came out at 77 nM.

Turning to `C[C@@H]1CC[C@H]2[C@@H](C)C(CC(COC(=O)c3cc(=O)oc4cc(N(C)C)ccc34)CC3O[C@H]4O[C@@]5(C)CC[C@H]6[C@H](C)CC[C@@H]([C@H]3C)[C@@]46OO5)O[C@H]3O[C@@]4(C)CC[C@@H]1[C@]32OO4` (stereo partly drawn), in data set [2], the IC50 is 2.4 nM.

Turning to `C[C@@H]1CC[C@H]2[C@@H](C)C(OCCN/C(=N/c3cccc(F)c3)NCCOC3O[C@@H]4O[C@]5(C)CC[C@@H]6[C@@H](C)CC[C@H]([C@@H]3C)[C@]46OO5)O[C@H]3O[C@@]4(C)CC[C@@H]1[C@]32OO4` (stereo partly drawn), the values for the IC50 in data set [6] and in data set [7] were 1330 nM and 90 nM, respectively.

As for `C[C@@H]1CC[C@H]2[C@@H](C)C(CC#Cc3cccc(C#CCC4O[C@H]5O[C@@]6(C)CC[C@H]7[C@H](C)CC[C@@H]([C@H]4C)[C@@]57OO6)c3)O[C@H]3O[C@@]4(C)CC[C@@H]1[C@]32OO4` (stereo partly drawn), in data set [3], the IC50 is 36 nM.

Take `C[C@@H]1CC[C@H]2[C@@H](C)C(CC(=O)CC3O[C@H]4O[C@@]5(C)CC[C@H]6[C@H](C)CC[C@@H]([C@H]3C)[C@@]46OO5)O[C@H]3O[C@@]4(C)CC[C@@H]1[C@]32OO4` (stereo partly drawn): in data set [2], the half-maximal inhibitory concentration (IC50) is 0.91 nM.

With `C[C@@H]1CC[C@H]2[C@@H](C)C(CC(COC(=O)c3ccncc3)CC3O[C@H]4O[C@@]5(C)CC[C@H]6[C@H](C)CC[C@@H]([C@H]3C)[C@@]46OO5)O[C@H]3O[C@@]4(C)CC[C@@H]1[C@]32OO4` (stereo partly drawn), the IC50 in data set [2] came out at 1.7 nM.

Regarding `C[C@H]1[C@H](CC(=O)c2ccc(C(=O)CC[C@H]3O[C@H]4O[C@@]5(C)CC[C@H]6[C@H](C)CC[C@@H]([C@H]3C)[C@@]46OO5)cc2)O[C@H]2O[C@@]3(C)CC[C@H]4[C@H](C)CC[C@@H]1[C@@]24OO3`, the IC50 in data set [3] came out at 1.7 nM; in data set [2], 3.9 nM.
